Source: the kinase profiling compilation of Christmann-Franck et al. (2016)

Legend:
Assay in all cases: KINOMEscan competition binding
Settings in all cases: compound 10.0 µM
[1] = system: ABL1 (human), P00519 [M351T]
AKT2 (human) = AKT2 (human) (UniProt P31751)
CDC42BPA (human) = CDC42BPA (human) (UniProt Q5VT25)
CDK11B (human) = CDK11B (human) (UniProt P21127)
CDK18 (human) = CDK18 (human) (UniProt Q07002)
CDK2 (human) = CDK2 (human) (UniProt P24941)
CDK9 (human) = CDK9 (human) (UniProt P50750)
CSNK1E (human) = CSNK1E (human) (UniProt P49674)
CSNK2A1 (human) = CSNK2A1 (human) (UniProt P68400)
[2] = system: EGFR (human), P00533 [A750P; 747-749 del]
[3] = system: EGFR (human), P00533 [G719S]
EIF2AK2 (human) = EIF2AK2 (human) (UniProt P19525)
EPHA2 (human) = EPHA2 (human) (UniProt P29317)
EPHB2 (human) = EPHB2 (human) (UniProt P29323)
EPHB4 (human) = EPHB4 (human) (UniProt P54760)
FGFR3 (human) = FGFR3 (human) (UniProt P22607)
Chain of FGFR3 (human) (P22607 whole entry, looked up): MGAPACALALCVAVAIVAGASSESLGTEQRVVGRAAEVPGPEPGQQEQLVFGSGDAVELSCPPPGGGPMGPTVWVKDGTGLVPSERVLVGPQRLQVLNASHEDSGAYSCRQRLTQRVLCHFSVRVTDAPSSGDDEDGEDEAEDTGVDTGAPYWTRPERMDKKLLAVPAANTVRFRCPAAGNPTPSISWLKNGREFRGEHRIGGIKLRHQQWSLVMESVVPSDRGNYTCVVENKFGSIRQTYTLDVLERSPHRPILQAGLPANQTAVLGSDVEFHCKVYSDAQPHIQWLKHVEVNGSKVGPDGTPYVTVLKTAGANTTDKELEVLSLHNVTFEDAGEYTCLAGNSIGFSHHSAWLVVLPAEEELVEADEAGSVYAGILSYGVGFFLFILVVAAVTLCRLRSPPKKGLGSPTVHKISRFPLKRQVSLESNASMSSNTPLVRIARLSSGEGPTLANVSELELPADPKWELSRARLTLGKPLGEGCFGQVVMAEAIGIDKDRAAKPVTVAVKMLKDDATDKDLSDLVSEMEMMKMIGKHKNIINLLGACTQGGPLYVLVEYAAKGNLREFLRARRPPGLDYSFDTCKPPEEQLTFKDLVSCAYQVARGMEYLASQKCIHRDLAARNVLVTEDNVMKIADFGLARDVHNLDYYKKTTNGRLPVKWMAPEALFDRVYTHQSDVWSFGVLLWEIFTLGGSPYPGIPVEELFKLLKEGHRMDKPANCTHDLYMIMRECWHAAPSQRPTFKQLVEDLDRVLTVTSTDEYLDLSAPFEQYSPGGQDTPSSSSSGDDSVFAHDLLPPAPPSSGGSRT

HIPK1 (human) = HIPK1 (human) (UniProt Q86Z02)
[4] = system: KIT (human), P10721 [D816V]
[5] = system: KIT (human), P10721 [V559D]
LATS1 (human) = LATS1 (human) (UniProt O95835)
MAP2K3 (human) = MAP2K3 (human) (UniProt P46734)
MAP3K4 (human) = MAP3K4 (human) (UniProt Q9Y6R4)
MAPK11 (human) = MAPK11 (human) (UniProt Q15759)
MAPK13 (human) = MAPK13 (human) (UniProt O15264)
Chain of MAPK13 (human) (O15264 whole entry, looked up): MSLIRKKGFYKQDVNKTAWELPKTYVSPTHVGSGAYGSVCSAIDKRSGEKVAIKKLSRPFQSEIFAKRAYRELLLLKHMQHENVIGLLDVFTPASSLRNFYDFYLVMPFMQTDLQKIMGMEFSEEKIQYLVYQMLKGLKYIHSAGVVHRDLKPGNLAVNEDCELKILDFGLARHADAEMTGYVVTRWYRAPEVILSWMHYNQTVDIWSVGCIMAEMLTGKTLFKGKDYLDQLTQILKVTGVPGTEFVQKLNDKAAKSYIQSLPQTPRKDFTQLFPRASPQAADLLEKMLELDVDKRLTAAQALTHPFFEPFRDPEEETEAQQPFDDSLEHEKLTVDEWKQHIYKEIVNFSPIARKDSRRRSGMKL

MELK (human) = MELK (human) (UniProt Q14680)
NEK5 (human) = NEK5 (human) (UniProt Q6P3R8)
NEK7 (human) = NEK7 (human) (UniProt Q8TDX7)
PAK4 (human) = PAK4 (human) (UniProt O96013)
PDGFRB (human) = PDGFRB (human) (UniProt P09619)
Chain of PDGFRB (human) (P09619 whole entry, looked up): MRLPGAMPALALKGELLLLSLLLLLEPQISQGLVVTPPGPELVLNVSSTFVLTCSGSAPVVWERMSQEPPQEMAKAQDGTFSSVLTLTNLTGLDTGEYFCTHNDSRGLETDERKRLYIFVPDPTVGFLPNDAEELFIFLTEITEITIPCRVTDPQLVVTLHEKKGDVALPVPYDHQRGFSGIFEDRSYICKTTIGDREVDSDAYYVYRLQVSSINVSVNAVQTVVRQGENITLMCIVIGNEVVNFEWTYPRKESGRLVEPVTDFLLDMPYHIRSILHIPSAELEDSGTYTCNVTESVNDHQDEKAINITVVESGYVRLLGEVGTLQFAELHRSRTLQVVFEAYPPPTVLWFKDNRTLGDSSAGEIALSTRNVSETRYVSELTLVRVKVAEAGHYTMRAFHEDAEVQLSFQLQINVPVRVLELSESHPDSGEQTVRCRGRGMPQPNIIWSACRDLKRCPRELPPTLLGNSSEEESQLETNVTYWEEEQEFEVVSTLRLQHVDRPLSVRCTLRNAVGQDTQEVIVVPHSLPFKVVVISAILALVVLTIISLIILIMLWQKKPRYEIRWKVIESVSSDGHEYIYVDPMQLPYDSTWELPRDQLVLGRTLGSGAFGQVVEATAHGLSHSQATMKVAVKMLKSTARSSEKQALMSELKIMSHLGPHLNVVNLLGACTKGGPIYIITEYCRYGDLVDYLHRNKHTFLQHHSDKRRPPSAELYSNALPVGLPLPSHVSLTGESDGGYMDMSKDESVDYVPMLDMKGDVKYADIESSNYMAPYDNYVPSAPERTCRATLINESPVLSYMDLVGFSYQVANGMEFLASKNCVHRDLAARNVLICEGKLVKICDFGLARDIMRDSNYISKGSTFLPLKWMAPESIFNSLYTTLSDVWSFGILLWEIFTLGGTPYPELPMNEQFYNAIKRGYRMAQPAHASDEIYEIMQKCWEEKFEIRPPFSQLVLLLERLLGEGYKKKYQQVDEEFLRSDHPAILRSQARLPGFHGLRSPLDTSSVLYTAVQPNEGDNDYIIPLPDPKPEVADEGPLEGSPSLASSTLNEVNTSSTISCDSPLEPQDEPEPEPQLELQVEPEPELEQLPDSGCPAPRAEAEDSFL

PHKG2 (human) = PHKG2 (human) (UniProt P15735)
PTK2 (human) = PTK2 (human) (UniProt Q05397)
Chain of PTK2 (human) (Q05397 whole entry, looked up): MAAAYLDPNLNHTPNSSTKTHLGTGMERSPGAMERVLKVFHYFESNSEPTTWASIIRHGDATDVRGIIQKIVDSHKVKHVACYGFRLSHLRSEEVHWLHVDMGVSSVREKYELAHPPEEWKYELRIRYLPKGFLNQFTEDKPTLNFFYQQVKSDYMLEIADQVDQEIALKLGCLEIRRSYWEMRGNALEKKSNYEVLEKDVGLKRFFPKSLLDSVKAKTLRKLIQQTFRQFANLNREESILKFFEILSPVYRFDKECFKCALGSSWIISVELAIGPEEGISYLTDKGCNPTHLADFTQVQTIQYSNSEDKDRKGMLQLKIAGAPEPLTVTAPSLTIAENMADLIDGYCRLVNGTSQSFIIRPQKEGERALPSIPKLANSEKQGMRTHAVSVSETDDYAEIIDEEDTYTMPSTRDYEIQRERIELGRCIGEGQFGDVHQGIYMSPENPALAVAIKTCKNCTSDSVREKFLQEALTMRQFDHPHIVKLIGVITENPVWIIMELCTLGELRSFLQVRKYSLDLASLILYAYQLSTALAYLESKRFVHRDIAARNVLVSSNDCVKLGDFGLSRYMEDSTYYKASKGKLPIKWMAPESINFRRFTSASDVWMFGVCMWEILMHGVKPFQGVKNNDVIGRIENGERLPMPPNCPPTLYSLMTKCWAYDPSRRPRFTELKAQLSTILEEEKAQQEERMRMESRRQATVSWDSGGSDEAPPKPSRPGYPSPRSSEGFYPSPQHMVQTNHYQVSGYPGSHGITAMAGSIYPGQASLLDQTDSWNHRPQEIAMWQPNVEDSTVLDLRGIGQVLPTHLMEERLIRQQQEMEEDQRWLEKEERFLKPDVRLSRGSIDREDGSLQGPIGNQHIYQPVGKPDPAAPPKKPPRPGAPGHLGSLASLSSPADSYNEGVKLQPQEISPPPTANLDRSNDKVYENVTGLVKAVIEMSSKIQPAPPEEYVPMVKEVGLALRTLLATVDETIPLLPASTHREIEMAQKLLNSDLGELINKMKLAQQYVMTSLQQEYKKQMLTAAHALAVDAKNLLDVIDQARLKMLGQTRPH

RIOK2 (human) = RIOK2 (human) (UniProt Q9BVS4)
RPS6KA4 KD1 (human) = RPS6KA4 KD1 (human) (UniProt O75676)
RPS6KA4 KD2 (human) = RPS6KA4 KD2 (human) (UniProt O75676)
RPS6KA5 KD1 (human) = RPS6KA5 KD1 (human) (UniProt O75582)
STK24 (human) = STK24 (human) (UniProt Q9Y6E0)
STK38L (human) = STK38L (human) (UniProt Q9Y2H1)
Chain of STK38L (human) (Q9Y2H1 whole entry, looked up): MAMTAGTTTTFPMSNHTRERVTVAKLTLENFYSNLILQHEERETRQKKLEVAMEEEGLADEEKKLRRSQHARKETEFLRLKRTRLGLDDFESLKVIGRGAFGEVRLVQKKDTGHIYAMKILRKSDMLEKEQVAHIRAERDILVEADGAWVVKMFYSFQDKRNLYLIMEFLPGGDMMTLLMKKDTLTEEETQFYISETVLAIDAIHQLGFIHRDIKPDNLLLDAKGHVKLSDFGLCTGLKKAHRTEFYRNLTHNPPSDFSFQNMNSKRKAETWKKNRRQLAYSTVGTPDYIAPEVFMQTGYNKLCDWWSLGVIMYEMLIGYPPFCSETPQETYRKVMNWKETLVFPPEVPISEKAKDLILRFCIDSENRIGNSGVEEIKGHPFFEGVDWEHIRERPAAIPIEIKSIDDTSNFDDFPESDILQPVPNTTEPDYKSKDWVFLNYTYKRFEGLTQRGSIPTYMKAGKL

TNK1 (human) = TNK1 (human) (UniProt Q13470)
Chain of TNK1 (human) (Q13470 whole entry, looked up): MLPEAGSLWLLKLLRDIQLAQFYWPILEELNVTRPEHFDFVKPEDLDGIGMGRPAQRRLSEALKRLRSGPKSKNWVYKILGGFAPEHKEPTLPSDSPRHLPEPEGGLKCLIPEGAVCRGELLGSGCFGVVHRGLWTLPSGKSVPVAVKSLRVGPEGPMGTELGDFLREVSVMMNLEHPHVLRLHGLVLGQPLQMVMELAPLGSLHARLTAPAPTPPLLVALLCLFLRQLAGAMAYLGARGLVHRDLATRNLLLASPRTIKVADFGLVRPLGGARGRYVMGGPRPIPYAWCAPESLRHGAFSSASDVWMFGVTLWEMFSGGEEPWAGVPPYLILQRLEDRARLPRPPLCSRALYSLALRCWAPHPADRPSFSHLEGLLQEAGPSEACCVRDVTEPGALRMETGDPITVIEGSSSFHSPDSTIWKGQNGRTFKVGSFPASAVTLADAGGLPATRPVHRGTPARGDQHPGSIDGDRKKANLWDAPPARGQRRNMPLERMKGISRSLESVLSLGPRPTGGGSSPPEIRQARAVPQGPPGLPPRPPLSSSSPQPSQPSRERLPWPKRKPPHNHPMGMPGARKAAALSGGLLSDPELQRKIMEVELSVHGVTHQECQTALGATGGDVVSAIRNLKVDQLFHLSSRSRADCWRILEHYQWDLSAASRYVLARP

TSSK1B (human) = TSSK1B (human) (UniProt Q9BXA7)
WEE2 (human) = WEE2 (human) (UniProt P0C1S8)
RET (human) = RET (human) (UniProt P07949)
STK35 (human) = STK35 (human) (UniProt Q8TDR2)

Chain of CDK18 (human) (Q07002 whole entry, looked up): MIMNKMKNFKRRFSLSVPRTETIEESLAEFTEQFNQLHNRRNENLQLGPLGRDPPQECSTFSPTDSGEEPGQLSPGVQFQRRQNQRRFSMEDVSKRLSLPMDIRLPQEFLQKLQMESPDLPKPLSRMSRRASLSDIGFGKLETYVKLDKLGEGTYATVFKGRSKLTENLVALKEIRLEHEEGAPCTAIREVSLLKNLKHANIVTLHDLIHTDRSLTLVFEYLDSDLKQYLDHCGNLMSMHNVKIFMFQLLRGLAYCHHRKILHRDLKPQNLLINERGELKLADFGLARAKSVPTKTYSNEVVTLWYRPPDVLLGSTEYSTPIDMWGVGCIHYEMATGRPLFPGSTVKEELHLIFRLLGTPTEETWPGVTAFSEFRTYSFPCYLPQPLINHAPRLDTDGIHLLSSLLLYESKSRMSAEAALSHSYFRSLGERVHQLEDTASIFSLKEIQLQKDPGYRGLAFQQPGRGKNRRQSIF

Structure (SMILES): COc1cc(N2CCC(N3CCN(C)CC3)CC2)ccc1Nc1ncc(Cl)c(Nc2ccccc2S(=O)(=O)C(C)C)n1
- kinase still bound, per cent of control [1]: 5%
- kinase still bound, per cent of control (AKT2 (human)): 40%
- kinase still bound, per cent of control (CDC42BPA (human)): 40%
- kinase still bound, per cent of control (CDK11B (human)): 40%
- kinase still bound, per cent of control (CDK18 (human)): 40%
- kinase still bound, per cent of control (CDK2 (human)): 24%
- kinase still bound, per cent of control (CDK9 (human)): 40%
- kinase still bound, per cent of control (CSNK1E (human)): 40%
- kinase still bound, per cent of control (CSNK2A1 (human)): 27%
- kinase still bound, per cent of control [2]: 0%
- kinase still bound, per cent of control [3]: 9.6%
- kinase still bound, per cent of control (EIF2AK2 (human)): 40%
- kinase still bound, per cent of control (EPHA2 (human)): 27%
- kinase still bound, per cent of control (EPHB2 (human)): 33%
- kinase still bound, per cent of control (EPHB4 (human)): 17%
- kinase still bound, per cent of control (FGFR3 (human)): 2.6%
- kinase still bound, per cent of control (HIPK1 (human)): 40%
- kinase still bound, per cent of control [4]: 3.1%
- kinase still bound, per cent of control [5]: 0.1%
- kinase still bound, per cent of control (LATS1 (human)): 32%
- kinase still bound, per cent of control (MAP2K3 (human)): 0.8%
- kinase still bound, per cent of control (MAP3K4 (human)): 13%
- kinase still bound, per cent of control (MAPK11 (human)): 40%
- kinase still bound, per cent of control (MAPK13 (human)): 40%
- kinase still bound, per cent of control (MELK (human)): 0.95%
- kinase still bound, per cent of control (NEK5 (human)): 40%
- kinase still bound, per cent of control (NEK7 (human)): 3.8%
- kinase still bound, per cent of control (PAK4 (human)): 9.6%
- kinase still bound, per cent of control (PDGFRB (human)): 0.25%
- kinase still bound, per cent of control (PHKG2 (human)): 0%
- kinase still bound, per cent of control (PTK2 (human)): 0%
- kinase still bound, per cent of control (RIOK2 (human)): 5.3%
- kinase still bound, per cent of control (RPS6KA4 KD1 (human)): 4.4%
- kinase still bound, per cent of control (RPS6KA4 KD2 (human)): 40%
- kinase still bound, per cent of control (RPS6KA5 KD1 (human)): 40%
- kinase still bound, per cent of control (STK24 (human)): 24%
- kinase still bound, per cent of control (STK38L (human)): 7.3%
- kinase still bound, per cent of control (TNK1 (human)): 0.45%
- kinase still bound, per cent of control (TSSK1B (human)): 0%
- kinase still bound, per cent of control (WEE2 (human)): 40%

Structure (SMILES): CCN1CCN(Cc2ccc(NC(=O)c3ccc(C)c(Oc4ccnc5[nH]ccc45)c3)cc2C(F)(F)F)CC1
- kinase still bound, per cent of control [1]: 0.35%
- kinase still bound, per cent of control (CDK11B (human)): 0.35%
- kinase still bound, per cent of control (CDK18 (human)): 1.8%
- kinase still bound, per cent of control (CDK2 (human)): 11%
- kinase still bound, per cent of control (CDK9 (human)): 5.8%
- kinase still bound, per cent of control [2]: 1.5%
- kinase still bound, per cent of control [3]: 14%
- kinase still bound, per cent of control (EPHA2 (human)): 3.1%
- kinase still bound, per cent of control (EPHB2 (human)): 11%
- kinase still bound, per cent of control (FGFR3 (human)): 9.4%
- kinase still bound, per cent of control (HIPK1 (human)): 6.2%
- kinase still bound, per cent of control [5]: 0%
- kinase still bound, per cent of control (MAPK11 (human)): 0%
- kinase still bound, per cent of control (MAPK13 (human)): 0.55%
- kinase still bound, per cent of control (PDGFRB (human)): 0%
- kinase still bound, per cent of control (PTK2 (human)): 23%
- kinase still bound, per cent of control (RET (human)): 0%
- kinase still bound, per cent of control (RPS6KA5 KD1 (human)): 4.7%
- kinase still bound, per cent of control (STK35 (human)): 3%
- kinase still bound, per cent of control (STK38L (human)): 6.8%
- kinase still bound, per cent of control (TNK1 (human)): 0.35%
